Source: EP0344995A2, “Method for inhibiting loss of cognitive functions employing a calcium channel blocker alone or in combination with an ace inhibitor” (E.R. SQUIBB & SONS, INC., priority 1988, dated 1989)

Key:
[1] = test system: Male albino (BKW) mice
[2] = test system: Adult male Sprauge-Dawley rats; assay: Extinction of conditioned avoidance response (CAE) in a shuttle box; format: in vivo; settings: 10 mg/kg and 30 mg/kg i.p. on the 2 days prior to testing and 1 hour before it, extinction tested during 14 days vs saline control
Protocol: Adult male Sprauge-Dawley rats (Charles River, Wilmington, MA), age 25 weeks and weighing 350-400 g, are separately housed in stainless steel cages with continuous access to food and water, a 12-hour light-dark cycle, and constant room temperature of 22° to 24 C. All testing took place approximately 6 hours into the dark component of the light-dark cycle and was conducted in a dimly lighted soundproof room using a standard shuttle box device ([…] Valley Electronics #146-04), a plexiglass chamber (50 x 20 x 20 cm) divided by a center barrier 7 cm in height. The conditioned stimulus consisted of a 10-second tone provided by a Sonlert mounted in the midpoint of the ceiling of the chamber. Floor current of 0.8 mA was delivered by a constant current shocker-scrambler ([…] Valley Electronics #133-33). The day before the initiation of training each animal was allowed to explore the experimental chamber for 10 minutes without any tone or shock. Training was conducted for 15 days following the day of experimental chamber exploration. Each animal received 20 trials per day on a 30-second variable interval schedule. No drug treatment was administered during the training period. Shock could be avoided by shuttling from one side of the center barrier to the other during the 10-second tone period. […] Animals which consistently remained on the center barrier were removed from the study. Automatic counters recorded the number of avoidance responses, escapes, and intertrial crossings, while a running time meter recorded the total shock duration for each animal. Animals not meeting the admittance criterion of correct avoidance rsponding on at least 85% of the trials for 4 out of the last 5 days of training were removed from the study. A total of 99 rats reaching the admittance criterion were tested for extinction of conditioned avoidance response (CAE) during 14 days. […] All solutions were prepared fresh and administered i.p. ([…]) on the 2 days prior to testing and then 1 hour before it. […] The tone was simply discontinued and the testing proceeded. Two-way analysis of variance of the CAE data yielded an overall significant difference in the rate of shuttle extinction between treatment groups.

Compound | protective effects on memory of previously learned tasks (rate of shuttle extinction) [2] | other results
COC(=O)C1=CCCN(C)C1 [arecoline] | – | basal learning (speed of habituation) ([1]; mouse, in vivo): the time course of the basic 'learning' or habituation was unaffected
C[C@H](CSC(=O)c1ccccc1)C(=O)N1C[C@@H](Sc2ccccc2)C[C@H]1C(=O)O [zofenopril] | possess protective effects on memory of previously learned tasks | –
CN1[C@@H]2C[C@@H](OC(=O)[C@H](CO)c3ccccc3)C[C@H]1[C@@H]1O[C@@H]12 [scopolamine] | – | influence on habituation of the challenge agent, daily challenge ([1]; mouse, in vivo): The habituation was impaired throughout the time of scopolamine challenge; autonomic disturbance ([1]; mouse, in vivo, ip, 0.25 mg/kg): did not cause autonomic disturbance; effect on vision ([1]; mouse, in vivo, ip, 0.25 mg/kg): lack of effect on vision
C[C@](N)(Cc1ccc(O)c(O)c1)C(=O)O [methyldopa] | do not have protective effects against loss of memory of previously learned tasks | –
C[C@@H](CS)C(=O)N1CCC[C@H]1C(=O)O [epicaptopril] | do not have protective effects against loss of memory of previously learned tasks | –
COc1ccc([C@@H]2Sc3ccccc3N(CCN(C)C)C(=O)[C@@H]2OC(C)=O)cc1 [diltiazem] | possess protective effects on memory of previously learned tasks | antagonism of impairment in habituation caused by acute challenge with scopolamine ([1]; mice, scopolamine 0.25 mg/kg i.p. acute challenge (days 6 and 10 for diltiazem), arecoline 50 mg/kg/day i.p. infusion, hydergine 0.1 mg/kg p.o. daily, listed as Diltiazem): found to antagonize the impairment in habituation performance
C[C@H](CS)C(=O)N1CCC[C@H]1C(=O)O [captopril] | possess protective effects on memory of previously learned tasks | –
